Measurements as given in ChEMBL document CHEMBL1201862, “PubChem BioAssay data set” (2004).
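Method: 48-hour compound exposure of cells in 96-well plates, five concentrations, linear interpolation of endpoints. The concentration for 50% growth inhibition is given as GI50.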 Activity calls are given as the source filed them. Rule as the data show it: active = GI50 up to about 1.1 µM and inactive = higher.

Key:
Assay in all cases: growth of human tumour cells (NCI), 48 h
NCI-H226 = system: NCI-H226
LXFL 529 = system: LXFL 529
HCT-15 = system: HCT-15
SK-MEL-5 = system: SK-MEL-5
UACC-62 = system: UACC-62
KM12 = system: KM12
OVCAR-8 = system: OVCAR-8
COLO 205 = system: COLO 205
NCI-H23 = system: NCI-H23
LOX IMVI = system: LOX IMVI
SW-620 = system: SW-620
Malme-3M = system: Malme-3M
OVCAR-3 = system: OVCAR-3
SF-268 = system: SF-268
DMS-114 = system: DMS-114
HCT-116 = system: HCT-116

In the case of `COc1ccc(S(=O)(=O)N/N=C\c2cc([N+](=O)[O-])cc(I)c2O)c(OC)c1OC`, the GI50 (NCI-H226) was 17.3 µM (inactive), the GI50 (LXFL 529) was > 10 µM (inactive) and the GI50 (HCT-15) was 22.3 µM. The GI50 (SK-MEL-5) was 21.2 µM (inactive), the GI50 (UACC-62) was 21.9 µM (inactive) and the GI50 (KM12) was 27.8 µM (inactive). For the same compound, the GI50 (OVCAR-8) was 34.4 µM (inactive), the GI50 (COLO 205) was 21.4 µM (inactive) and the GI50 (NCI-H23) was 30.5 µM (inactive). The GI50 (LOX IMVI) was 32.5 µM (inactive), the GI50 (SW-620) was 39.8 µM (inactive) and the GI50 (Malme-3M) was 27.7 µM (inactive). The GI50 (OVCAR-3) was 20.7 µM (inactive), the GI50 (SF-268) was 26.5 µM (inactive) and the GI50 (DMS-114) was 25.1 µM (inactive).
With `O=C(Nc1ccc(Cl)cc1Cl)C(=O)C(C(=O)c1ccc2ccccc2c1)C1OC(=O)c2ccccc21` (configuration not stated) the GI50 (NCI-H226) was 1.73 µM (inactive), the GI50 (LXFL 529) was 3.33 µM (inactive) and the GI50 (HCT-116) was 5.56 µM (inactive). The GI50 (HCT-15) was 11.5 µM, the GI50 (SK-MEL-5) was 9.73 µM (inactive) and the GI50 (UACC-62) was 9.79 µM (inactive). The GI50 (KM12) was 15 µM (inactive), the GI50 (OVCAR-8) was 6.34 µM (inactive) and the GI50 (COLO 205) was 9.46 µM (inactive). The GI50 (NCI-H23) was 2.92 µM (inactive), the GI50 (LOX IMVI) was 5.19 µM (inactive) and the GI50 (SW-620) was 6.73 µM (inactive). For the same compound, the GI50 (Malme-3M) was > 10 µM (inactive), the GI50 (OVCAR-3) was 10.7 µM (inactive) and the GI50 (SF-268) was > 10 µM (inactive). For the same compound, the GI50 (DMS-114) was 11.1 µM (inactive).
In the case of `COC(=O)C(C)(C)/N=C/N(C)C`, the GI50 (NCI-H226) was > 100 µM (inactive), the GI50 (LXFL 529) was > 100 µM (inactive) and the GI50 (HCT-116) was > 100 µM (inactive). For the same compound, the GI50 (HCT-15) was > 100 µM, the GI50 (SK-MEL-5) was > 100 µM (inactive) and the GI50 (UACC-62) was > 100 µM (inactive). For the same compound, the GI50 (KM12) was > 100 µM (inactive), the GI50 (OVCAR-8) was > 100 µM (inactive) and the GI50 (COLO 205) was > 100 µM (inactive). For the same compound, the GI50 (NCI-H23) was > 100 µM (inactive), the GI50 (LOX IMVI) was 68.2 µM (inactive) and the GI50 (SW-620) was 28.4 µM (inactive). The GI50 (Malme-3M) was > 100 µM (inactive), the GI50 (OVCAR-3) was > 100 µM (inactive) and the GI50 (SF-268) was > 100 µM (inactive). For the same compound, the GI50 (DMS-114) was > 100 µM (inactive).
`CC1=C(C(=O)Nc2ccccc2C)C(c2ccc([N+](=O)[O-])cc2)C(C(=O)Nc2ccccc2C)=C(C)N1` was tested, and the GI50 (NCI-H226) was > 100 µM (inactive), the GI50 (LXFL 529) was 35.6 µM (inactive) and the GI50 (HCT-15) was 56.5 µM. The GI50 (SK-MEL-5) was 11.3 µM (inactive), the GI50 (UACC-62) was 43.9 µM (inactive) and the GI50 (KM12) was 39.3 µM (inactive). For the same compound, the GI50 (OVCAR-8) was > 100 µM (inactive), the GI50 (COLO 205) was 29.9 µM (inactive) and the GI50 (NCI-H23) was 37.5 µM (inactive). The GI50 (LOX IMVI) was 43.4 µM (inactive), the GI50 (SW-620) was 93.3 µM (inactive) and the GI50 (Malme-3M) was 42.7 µM (inactive). The GI50 (OVCAR-3) was 40.1 µM (inactive), the GI50 (SF-268) was 39.1 µM (inactive) and the GI50 (DMS-114) was 33.3 µM (inactive).
`CCN(CC)CCOC(=O)/C(=C/c1ccc(OC)cc1)c1cc(OC)c(OC)c(OC)c1` was tested, and the GI50 (NCI-H226) was 13.5 µM (inactive), the GI50 (LXFL 529) was 5.45 µM (inactive) and the GI50 (HCT-116) was 5.45 µM (inactive). For the same compound, the GI50 (HCT-15) was 4.82 µM, the GI50 (SK-MEL-5) was 3.26 µM (inactive) and the GI50 (UACC-62) was 3.71 µM (inactive). The GI50 (KM12) was 3.77 µM (inactive), the GI50 (OVCAR-8) was 15.5 µM (inactive) and the GI50 (COLO 205) was 5.75 µM (inactive). The GI50 (LOX IMVI) was 5.08 µM (inactive), the GI50 (SW-620) was 4.18 µM (inactive) and the GI50 (Malme-3M) was 10.1 µM (inactive). The GI50 (OVCAR-3) was 4.95 µM (inactive), the GI50 (SF-268) was 5.45 µM (inactive) and the GI50 (DMS-114) was 4.81 µM (inactive).
In the case of `CCOC(=O)C1=C(C)N(c2ccccc2)C2=C(C(=O)N(c3ccccc3)C2c2ccccc2)C1c1ccccc1` (configuration not stated), the GI50 (NCI-H226) was > 100 µM (inactive), the GI50 (LXFL 529) was > 100 µM (inactive) and the GI50 (HCT-116) was > 100 µM (inactive). For the same compound, the GI50 (SK-MEL-5) was > 100 µM (inactive), the GI50 (UACC-62) was > 100 µM (inactive) and the GI50 (KM12) was > 100 µM (inactive). The GI50 (OVCAR-8) was > 100 µM (inactive), the GI50 (COLO 205) was > 100 µM (inactive) and the GI50 (NCI-H23) was > 100 µM (inactive). For the same compound, the GI50 (LOX IMVI) was > 100 µM (inactive), the GI50 (SW-620) was > 100 µM (inactive) and the GI50 (Malme-3M) was > 100 µM (inactive). The GI50 (OVCAR-3) was > 100 µM (inactive), the GI50 (SF-268) was > 100 µM (inactive) and the GI50 (DMS-114) was > 100 µM (inactive).
With `CC(=O)O[C@]1(C)OC(=O)[C@@H](C)N1[N+](=O)[O-]` the GI50 (NCI-H226) was > 100 µM (inactive), the GI50 (LXFL 529) was > 100 µM (inactive) and the GI50 (HCT-116) was > 100 µM (inactive). For the same compound, the GI50 (HCT-15) was > 100 µM, the GI50 (SK-MEL-5) was > 100 µM (inactive) and the GI50 (UACC-62) was > 100 µM (inactive). The GI50 (KM12) was > 100 µM (inactive), the GI50 (OVCAR-8) was > 100 µM (inactive) and the GI50 (COLO 205) was > 100 µM (inactive). For the same compound, the GI50 (NCI-H23) was > 100 µM (inactive), the GI50 (LOX IMVI) was 72.3 µM (inactive) and the GI50 (SW-620) was > 100 µM (inactive). The GI50 (Malme-3M) was > 100 µM (inactive), the GI50 (OVCAR-3) was > 100 µM (inactive) and the GI50 (DMS-114) was > 100 µM (inactive).
